In paper PMC7663272, “Discovery of Tricyclic Pyranochromenone as Novel Bruton’s Tyrosine Kinase Inhibitors with In Vivo Antirheumatic Activity” (International Journal of Molecular Sciences, 2020):
Entries after “also recorded” stand apart in the source; their conditions may differ.

Experiments:
[1] = test system: collagen-induced arthritis (CIA); experiment: Murine model of collagen-induced arthritis (CIA); format: in vivo; details: mice, 0.3 mg/kg, daily oral; t-test
Description: The in vivo efficacy of compound 8 was evaluated in a murine inflammatory model of collagen-induced arthritis (CIA). The study included four groups: a vehicle-treated control group and three treatment groups. The treatment groups comprised a dexamethasone-treated group, in which dexamethasone served as the positive control, and two treatment groups, in which animals were treated with compound 8 at doses of 10 and 50 mg/kg. Compound 8 was administered once daily for 15 days by oral gavage, and the in vivo efficacy was evaluated by measuring the clinical score and foot volume. […] There were no significant changes in the body weights of animals in all the treatment groups (data not shown) during treatment.
The animal study was approved by the Institutional Animal Care and Use Committee (IACUC) of the Korea Research Institute of Bioscience and Biotechnology on March 15, 2017, under approval number KRIBB-AEC-17090. Male DBA1/JNCrli mice (7 weeks old) were purchased from Japan CRL, Inc. The mice were housed in specific pathogen-free (SPF) conditions and were allowed ad libitum access to food and water. After 7 days of acclimatization, the mice were immunized with 0.05 mL of a type II collagen emulsion (Hooke Kit^TM Chicken Collagen, Cat. No. EK-0210 from Hooke) and Freund’s complete adjuvant by subcutaneous injection at 1.5 cm distal from the base of the tail. After 21 days, the immunized mice were administered a booster injection with 0.05 mL of a type II collagen emulsion (Hooke Kit^TM Chicken Collagen, Cat. No. EK-0211 from Hooke) and Freund’s incomplete adjuvant. The emulsions were prepared according to the manufacturer’s instructions. On day 21, the mice with CIA were randomized into four groups. The animals in the four groups were administered either 0.3 mg/kg dexamethasone (n = 5), 10 mg/kg compound 8 (n = 5), 50 mg/kg compound 8 (n = 5), or vehicle (n = 5), once a day, for […], orally. The vehicle, in which all test compounds were suspended, comprised DMAC (10%), Tween 80 (10%), and DW (80%). Clinical arthritis scores and body weights were assessed three times per week for 15 days. The paw volumes were measured using a LE7500 plethysmometer (Panlab, Barcelona, Spain) on days 0 and 42.

BTK-wt = biological target: T1, BTK-wt (Homo sapiens, UniProt Q06187); experiment: HotSpot kinase enzymatic assay, BTK-wt; format: biochemical; details: for inhibition at 10 µM: vs negative control (DMSO), mean of two separate experiments, NA = not active at 10 µM, read-out: % Inhibition (10 µM) BTK-wt; for IC50: HotSpot assay, 10 μM ATP, GraphPad Prism
T1 construct: purchased Reaction Biology Corporation
Description: (§1) Kinase enzymatic assays for BTK, BMX, TXK, TEC, ITK, EGFR, ERBB2, ERBB4, and JAK3 were performed at Reaction Biology Corporation (www.reactionbiology.com, Malvern, PA, USA) using the HotSpot assay platform. Briefly, specific kinase/substrate pairs and the required cofactors were prepared in a reaction buffer comprising 20 mM HEPES (pH 7.5), 10 mM MgCl2, 1 mM EGTA, 0.02% Brij35, 0.02 mg/mL BSA, 0.1 mM Na3VO4, 2 mM DTT, and 1% DMSO. The compounds were added to the reaction mixture and allowed to incubate. Approximately 20 min later, a mixture of ATP (Sigma-Aldrich, St. Louis, MO, USA) and ^33P ATP (PerkinElmer, Waltham, MA, USA) was added to the reaction mixture at a final concentration of 10 μM. The reactions were performed at room temperature for 120 min; subsequently, the reactions were spotted onto P81 ion exchange filter papers (Whatman Inc., Maidstone, UK). […] GraphPad Prism software was used to obtain the IC50 values and perform curve fitting.

BTK-C481S = biological target: T2, BTK-C481S (Homo sapiens, UniProt Q06187, C481S); experiment: HotSpot kinase enzymatic assay, mutant BTK; format: biochemical; details: vs negative control (DMSO), mean of two separate experiments
T2 construct: purchased Reaction Biology Corporation
Description: To confirm the role of the electrophilic warhead groups, the acryloyl group of compound 8 was replaced with methylacryloyl (11) and propionyl (12) groups, which are less electrophilic or lack an electrophilic feature. […] The significant difference in the inhibitory activity of compounds 8 and 12 could explain the critical role of the acryloyl moiety in potentiating the BTK inhibitory activity of compound 8. […] It was also confirmed by comparison of the inhibitory activity of the representative compounds (8–10) with electrophilic warheads against wild-type BTK (BTK-wt) and mutant BTK (BTK-C481S).
as §1, with “UK). Any unbound phosphate was removed by thoroughly washing the filter papers with 0.75% phosphoric acid.” for “UK).”

BTK = test system: BTK; parameters: method as in not given; details: reported tricyclic BTK inhibitors, printed in Figure 2b; ref not given; cited from earlier work

T1 sequence (Q06187 whole entry): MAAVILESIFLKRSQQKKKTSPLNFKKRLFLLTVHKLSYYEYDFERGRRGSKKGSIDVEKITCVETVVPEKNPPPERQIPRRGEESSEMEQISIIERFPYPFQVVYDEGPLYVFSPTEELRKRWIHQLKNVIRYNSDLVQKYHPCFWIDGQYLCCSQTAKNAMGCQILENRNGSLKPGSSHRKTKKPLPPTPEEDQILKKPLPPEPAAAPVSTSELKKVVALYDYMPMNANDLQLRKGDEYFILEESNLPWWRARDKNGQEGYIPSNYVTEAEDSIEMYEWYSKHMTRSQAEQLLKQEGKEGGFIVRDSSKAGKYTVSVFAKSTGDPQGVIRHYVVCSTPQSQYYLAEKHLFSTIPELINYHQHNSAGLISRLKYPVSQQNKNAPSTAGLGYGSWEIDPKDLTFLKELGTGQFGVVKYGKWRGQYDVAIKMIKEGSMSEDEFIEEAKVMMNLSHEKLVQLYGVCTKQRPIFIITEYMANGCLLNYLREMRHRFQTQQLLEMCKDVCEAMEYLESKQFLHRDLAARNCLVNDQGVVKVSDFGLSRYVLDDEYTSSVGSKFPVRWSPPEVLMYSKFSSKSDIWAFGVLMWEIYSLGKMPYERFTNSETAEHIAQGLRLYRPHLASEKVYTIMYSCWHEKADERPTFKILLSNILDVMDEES
T2 sequence (Q06187 whole entry C481S): as the sequence (Q06187 whole entry) above, with C481S counted along it

| SMILES | clinical scores vs control [1] | BTK inhibitory activity (in words) (BTK-wt) | inhibition at 10 µM (BTK-wt) [%] | IC50 (BTK-wt) [µM] | inhibition at 10 µM (BTK-C481S) [%] | IC50 (BTK) [µM] |
| --- | --- | --- | --- | --- | --- | --- |
| C[C@@H]1C[C@H]2[C@@H]3CCC4=CC(=O)C=C[C@]4(C)[C@@]3(F)[C@@H](O)C[C@]2(C)[C@@]1(O)C(=O)CO [dexamethasone, reference compound] | differed significantly from those with the control | – | – | – | – | – |
| CC(C)=CC(=O)O[C@H]1Cc2cc3ccc(=O)oc3cc2OC1(C)C [Compound 1, Decursin] | – | weak inhibitory activity | 32 | > 10 | – | – |
| CC1(C)Oc2cc3oc(=O)ccc3cc2C[C@@H]1O [Compound 2, S-(+)-Decursinol] | – | inactive | 7.7 | > 10 | – | – |
| C=CS(=O)(=O)O[C@H]1Cc2cc3ccc(=O)oc3cc2OC1(C)C [Compound 9, (7S)-(+)-Ethenesulfonic acid, 8,8-dimethyl-2-oxo-6,7-dihydro-2H,8H-pyrano [3,2-g]chromen-7-yl ester] | – | – | 95.8 | 0.9 | 15.8 | – |
| CC1(C)Oc2cc3oc(=O)ccc3cc2C[C@@H]1OC(=O)/C=C/CBr [Compound 4] | – | minimal inhibitory activity | 20.3 | > 10 | – | – |
| CC1(C)Oc2cc3oc(=O)ccc3cc2C[C@@H]1OC(=O)/C=C/c1ccccc1 [Compound 5, (7S)-(+)-trans-Cinnamic acid, 8,8-dimethyl-2-oxo-6,7-dihydro-2H,8H-pyrano[3,2-g]chromen-7-yl ester] | – | no BTK inhibitory activity | – | > 10 | – | – |
| Cc1c(-c2c(F)cc(C(N)=O)c3[nH]c4c(c23)CC[C@H](C(C)(C)O)C4)cccc1-n1c(=O)c2cccc(F)c2n(C)c1=O [BMS-986142] | – | – | – | – | – | 0.0005 |
| C/C=C/C(=O)O[C@H]1Cc2cc3ccc(=O)oc3cc2OC1(C)C [Compound 3, (7S)-(+)-But-2-enoic acid, 8,8-dimethyl-2-oxo-6,7-dihydro-2H,8H-pyrano[3,2-g]chromen-7-ylester] | – | minimal inhibitory activity | 11.3 | > 10 | – | – |
| CC1(C)Oc2cc3oc(=O)ccc3cc2C[C@@H]1OC(=O)CCl [Compound 10, (7S)-(+)-Chloroacetic acid, 8,8-dimethyl-2-oxo-6,7-dihydro-2H,8H-pyrano [3,2-g]chromen-7-ylester] | – | – | 99.2 | 0.5 | 18.6 | – |
| CCC(=O)O[C@H]1Cc2cc3ccc(=O)oc3cc2OC1(C)C [Compound 12, (7S)-(+)-Propionic acid, 8,8-dimethyl-2-oxo-6,7-dihydro-2H,8H-pyrano [3,2-g]chromen-7-ylester] | – | completely diminished; also recorded: BTK inhibitory activity was lost | – | > 10 | – | – |
| CC1(C)Oc2cc3oc(=O)ccc3cc2C[C@@H]1OC(=O)/C=C/c1ccc(F)cc1 [Compound 6, (7S)-(+)-trans-4-Fluorocinnamic acid, 8,8-dimethyl-2-oxo-6,7-dihydro-2H,8H-pyrano[3,2-g]chromen-7-yl ester] | – | no BTK inhibitory activity | – | > 10 | – | – |
| C=C(C)C(=O)O[C@H]1Cc2cc3ccc(=O)oc3cc2OC1(C)C [Compound 11, (7S)-(+)-2-Methylacrylic acid, 8,8-dimethyl-2-oxo-6,7-dihydro-2H,8H-pyrano[3,2-g]chromen-7-yl ester] | – | completely diminished | – | > 10 | – | – |
| CC#CC(=O)O[C@H]1Cc2cc3ccc(=O)oc3cc2OC1(C)C [Compound 7, (7S)-(+)-But-2-yonic acid, 8,8-dimethyl-2-oxo-6,7-dihydro-2H,8H-pyrano[3,2-g]chromen-7-ylester] | – | relatively low BTK inhibitory activity | 34.5 | 7 | – | – |
